Measured values taken from US10670605B2, “Cysteine reactive probes and uses thereof” (The Scripps Research Institute, priority 2015, dated 2020).
Blank lines part the entries; values can stand above or below the compound they belong to.

Tests used:
ERCC3 C342 (P19447) = biological target: T1, ERCC3 C342 (P19447) (Homo sapiens, UniProt P19447); test: Competitive isoTOP-ABPP, cell lysates; format: binding; settings: for R value (DMSO/fragment): in vitro; for isoTOP-ABPP ratio P19447_C342: invitro; for isoTOP-ABPP ratio (reactivity profile), P19447_C342: 500 μm in-vitro ramos_231
T1 sequence (P19447 1-782): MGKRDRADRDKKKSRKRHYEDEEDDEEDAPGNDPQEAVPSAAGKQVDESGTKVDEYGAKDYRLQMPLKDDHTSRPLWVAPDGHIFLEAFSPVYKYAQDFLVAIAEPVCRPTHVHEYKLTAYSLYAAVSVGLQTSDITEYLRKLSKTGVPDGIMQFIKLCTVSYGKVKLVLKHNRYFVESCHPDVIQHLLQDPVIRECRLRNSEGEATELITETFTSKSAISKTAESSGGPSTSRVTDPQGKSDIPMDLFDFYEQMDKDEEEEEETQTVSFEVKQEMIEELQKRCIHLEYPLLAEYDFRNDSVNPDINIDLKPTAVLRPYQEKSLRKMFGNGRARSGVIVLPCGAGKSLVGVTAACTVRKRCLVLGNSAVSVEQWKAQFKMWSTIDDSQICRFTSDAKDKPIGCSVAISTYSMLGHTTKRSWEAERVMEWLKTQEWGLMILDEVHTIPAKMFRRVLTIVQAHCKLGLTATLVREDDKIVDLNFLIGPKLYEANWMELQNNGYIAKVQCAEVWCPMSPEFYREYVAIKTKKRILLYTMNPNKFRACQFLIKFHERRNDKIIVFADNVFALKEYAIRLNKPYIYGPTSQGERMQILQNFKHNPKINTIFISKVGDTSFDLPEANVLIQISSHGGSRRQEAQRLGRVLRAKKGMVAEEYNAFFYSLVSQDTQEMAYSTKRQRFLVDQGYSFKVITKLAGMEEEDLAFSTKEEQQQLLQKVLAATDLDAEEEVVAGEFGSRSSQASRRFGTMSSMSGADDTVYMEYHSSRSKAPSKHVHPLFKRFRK

[1] = biological target: T2, cysteines in MDA-MB-231 and Ramos cells (Homo sapiens, UniProt P42166); test: Competitive isoTOP-ABPP in situ (fragment-treated cells); format: cell-based
T2 sequence (P42166 1-694): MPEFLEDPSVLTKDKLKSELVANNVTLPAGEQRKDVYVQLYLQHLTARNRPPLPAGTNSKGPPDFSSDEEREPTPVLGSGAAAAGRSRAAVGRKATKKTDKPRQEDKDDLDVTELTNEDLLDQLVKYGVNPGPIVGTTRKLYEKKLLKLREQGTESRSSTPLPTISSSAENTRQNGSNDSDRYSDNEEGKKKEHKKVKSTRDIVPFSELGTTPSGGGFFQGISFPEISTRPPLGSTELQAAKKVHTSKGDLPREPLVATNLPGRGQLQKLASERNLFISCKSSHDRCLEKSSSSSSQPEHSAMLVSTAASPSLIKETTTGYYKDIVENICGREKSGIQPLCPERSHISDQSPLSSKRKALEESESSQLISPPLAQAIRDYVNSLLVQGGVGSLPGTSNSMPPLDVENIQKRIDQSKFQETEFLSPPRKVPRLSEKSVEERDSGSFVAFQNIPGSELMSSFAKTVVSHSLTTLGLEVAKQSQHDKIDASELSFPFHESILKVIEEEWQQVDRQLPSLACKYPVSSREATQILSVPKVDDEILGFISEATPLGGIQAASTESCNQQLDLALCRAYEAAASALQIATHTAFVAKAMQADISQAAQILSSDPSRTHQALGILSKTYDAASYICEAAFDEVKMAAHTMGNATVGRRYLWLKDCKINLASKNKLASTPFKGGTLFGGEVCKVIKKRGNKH

[2] = biological target: T3, cysteines in MDA-MB-231 and Ramos cells (Homo sapiens, UniProt P25205); test: as above; format: cell-based
T3 sequence (P25205 1-808): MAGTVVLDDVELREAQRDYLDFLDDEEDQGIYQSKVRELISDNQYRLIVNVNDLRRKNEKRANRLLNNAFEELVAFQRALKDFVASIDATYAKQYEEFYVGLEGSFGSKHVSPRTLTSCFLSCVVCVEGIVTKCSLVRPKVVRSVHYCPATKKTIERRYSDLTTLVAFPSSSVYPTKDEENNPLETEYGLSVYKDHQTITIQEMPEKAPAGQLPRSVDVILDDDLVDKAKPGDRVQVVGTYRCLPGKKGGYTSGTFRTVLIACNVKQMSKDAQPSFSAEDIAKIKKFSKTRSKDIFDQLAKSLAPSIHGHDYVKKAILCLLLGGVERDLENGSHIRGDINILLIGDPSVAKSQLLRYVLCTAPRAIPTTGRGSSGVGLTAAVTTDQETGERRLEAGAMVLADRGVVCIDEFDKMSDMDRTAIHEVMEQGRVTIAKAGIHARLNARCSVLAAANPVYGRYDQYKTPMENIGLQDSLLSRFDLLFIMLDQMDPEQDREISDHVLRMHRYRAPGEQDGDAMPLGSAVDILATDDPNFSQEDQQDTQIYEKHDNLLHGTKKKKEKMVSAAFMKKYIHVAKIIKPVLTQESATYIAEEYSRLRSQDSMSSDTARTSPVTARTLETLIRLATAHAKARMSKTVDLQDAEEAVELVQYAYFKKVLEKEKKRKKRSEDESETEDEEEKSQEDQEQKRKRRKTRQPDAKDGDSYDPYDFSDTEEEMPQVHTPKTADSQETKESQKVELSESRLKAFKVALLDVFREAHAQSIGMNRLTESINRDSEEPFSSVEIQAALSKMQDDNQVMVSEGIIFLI

O114933_C98 = O114933_C98 (Homo sapiens, UniProt O14933); test: Competitive isoTOP-ABPP, cell lysates; format: binding; settings: 500 μm in-vitro ramos
O114933_C98, sequence (O14933 whole entry): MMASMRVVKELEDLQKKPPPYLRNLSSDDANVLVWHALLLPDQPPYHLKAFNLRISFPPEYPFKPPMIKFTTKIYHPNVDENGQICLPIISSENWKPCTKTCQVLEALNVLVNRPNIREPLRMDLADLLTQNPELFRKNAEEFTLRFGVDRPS

O00541_C272 = O00541_C272 (Homo sapiens, UniProt O00541); test: Competitive isoTOP-ABPP, cell lysates; format: binding; settings: 500 μm in-vitro ramos
O00541_C272, sequence (O00541 whole entry, looked up): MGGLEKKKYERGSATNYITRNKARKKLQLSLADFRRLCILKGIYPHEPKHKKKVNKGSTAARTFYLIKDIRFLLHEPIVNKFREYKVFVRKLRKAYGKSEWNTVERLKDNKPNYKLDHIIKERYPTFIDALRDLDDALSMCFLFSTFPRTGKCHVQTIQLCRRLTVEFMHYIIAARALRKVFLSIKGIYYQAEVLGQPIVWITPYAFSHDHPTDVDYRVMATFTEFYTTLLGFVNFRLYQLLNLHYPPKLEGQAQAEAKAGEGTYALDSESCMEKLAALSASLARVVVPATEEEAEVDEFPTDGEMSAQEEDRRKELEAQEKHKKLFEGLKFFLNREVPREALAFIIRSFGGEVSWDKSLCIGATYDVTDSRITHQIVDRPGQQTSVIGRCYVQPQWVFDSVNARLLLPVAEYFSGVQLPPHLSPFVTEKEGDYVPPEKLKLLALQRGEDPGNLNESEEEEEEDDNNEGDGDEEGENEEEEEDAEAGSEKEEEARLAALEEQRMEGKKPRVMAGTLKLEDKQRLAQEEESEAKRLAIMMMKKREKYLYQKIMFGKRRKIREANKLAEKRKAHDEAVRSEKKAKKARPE

R value (DMSO/fragment) (ERCC3 C342 (P19447); 500 μM, MDA-MB-231): 20.0
isoTOP-ABPP reactivity P42166_C341 TMPO ([1]; 200 μM, insitu, 231): 10.4
isoTOP-ABPP reactivity P42166_C561 TMPO ([1]; 200 μM, insitu, 231): 8.3
isoTOP-ABPP reactivity P42166_C629 TMPO ([1]; 200 μM, insitu, 231): 4.4
isoTOP-ABPP reactivity P25205_C119 MCM3 ([2]; 200 μM, insitu, 231): 3.5
Structure (SMILES): COc1ccc2c(c1)CCCN2C(=O)CCl [compound 2]

R value (DMSO/fragment) (ERCC3 C342 (P19447); 500 μM, MDA-MB-231): 12.1
Structure (SMILES): O=C(CCl)Nc1cc(C(F)(F)F)cc(C(F)(F)F)c1 [compound 3]

R value (DMSO/fragment) (ERCC3 C342 (P19447); 250 μM, MDA-MB-231): 1.6
R value (DMSO/fragment) (ERCC3 C342 (P19447); 250 μM, Ramos): 1.1
isoTOP-ABPP reactivity P42166_C561 TMPO ([1]; 100 μM in situ 231): 20.0
isoTOP-ABPP reactivity P25205_C119 MCM3 ([2]; 100 μM in situ 231): 4.3
Structure (SMILES): COc1ccc(C2CC(c3cccs3)=NN2C(=O)CCl)cc1 (stereo not shown) [compound 4]

isoTOP-ABPP ratio P19447_C342 (ERCC3 C342 (P19447); 500 μM, ramos): 4.1
Structure (SMILES): C=CC(=O)N(c1ccccc1)c1ccc(Br)cc1 [compound 5]

isoTOP-ABPP ratio P19447_C342 (ERCC3 C342 (P19447); 500 μM, 231): 1.1
Structure (SMILES): CNS(=O)(=O)C=Cc1ccc2c(ccn2Cc2ccccc2)c1 [compound 6]

isoTOP-ABPP reactivity P42166_C341 TMPO ([1]; 200 μM, insitu, 231): 4.4
isoTOP-ABPP reactivity P42166_C561 TMPO ([1]; 200 μM, insitu, 231): 4.6
isoTOP-ABPP reactivity P42166_C629 TMPO ([1]; 200 μM, insitu, 231): 1.7
isoTOP-ABPP reactivity P42166_C684 TMPO ([1]; 200 μM, insitu, 231): 4.6
isoTOP-ABPP reactivity P25205_C119 MCM3 ([2]; 200 μM, insitu, 231): 3.5
Structure (SMILES): COc1cc2c(cc1OC)CN(C(=O)CCl)CC2 [compound 8]

isoTOP-ABPP reactivity P42166_C561 TMPO ([1]; 200 μM, insitu, 231): 3.7
isoTOP-ABPP reactivity P25205_C119 MCM3 ([2]; 200 μM, insitu, 231): 1.9
Structure (SMILES): O=C(CCl)N1CCC(Cc2ccccc2)CC1 [compound 9]

isoTOP-ABPP ratio P19447_C342 (ERCC3 C342 (P19447); 500 μM, 231): 3.0
isoTOP-ABPP ratio P42166_C561 ([1]; 200 μM, insitu, 231): 17.8
isoTOP-ABPP ratio, cysteine P42166_C518 ([1]; 200 μM, insitu, 231): 4.2
isoTOP-ABPP ratio, cysteine P42166_C629 ([1]; 200 μM, insitu, 231): 2.5
isoTOP-ABPP ratio, cysteine P42166_C684 ([1]; 200 μM, insitu, 231): 5.2
isoTOP-ABPP ratio P25205_C119 ([2]; 200 μM, insitu, 231): 2.3
Structure (SMILES): O=C(CCl)N1CCN(S(=O)(=O)c2ccccc2F)CC1 [compound 10]

isoTOP-ABPP ratio P19447_C342 (ERCC3 C342 (P19447); 500 μM, 231): 2.9
isoTOP-ABPP ratio P19447_C342 (ERCC3 C342 (P19447); 500 μM, ramos): 1.5
isoTOP-ABPP ratio P42166_C341 ([1]; 100 μM in situ 231): 0.8
isoTOP-ABPP ratio P42166_C561 ([1]; 100 μM in situ 231): 0.6
isoTOP-ABPP ratio, cysteine P42166_C518 ([1]; 100 μM in situ 231): 0.8
isoTOP-ABPP ratio, cysteine P42166_C629 ([1]; 100 μM in situ 231): 0.6
isoTOP-ABPP ratio, cysteine P42166_C684 ([1]; 100 μM in situ 231): 0.7
isoTOP-ABPP ratio P25205_C119 ([2]; 100 μM in situ 231): 0.7
Structure (SMILES): Cn1cc(S(=O)(=O)N2CCOCC2)cc1C(=O)NC(=O)CCl [compound 11]

isoTOP-ABPP ratio P19447_C342 (ERCC3 C342 (P19447); 500 μM, 231): 3.0
isoTOP-ABPP ratio P42166_C561 ([1]; 200 μM, insitu, 231): 16.1
isoTOP-ABPP ratio P25205_C119 ([2]; 200 μM, insitu, 231): 1.0
Structure (SMILES): O=C(CCl)NC(=O)NC12CC3CC(CC(C3)C1)C2 [compound 12]

isoTOP-ABPP ratio P19447_C342 (ERCC3 C342 (P19447); 500 μM, 231): 1.0
isoTOP-ABPP ratio P42166_C341 ([1]; 200 μM, insitu, 231): 1.3
isoTOP-ABPP ratio P42166_C561 ([1]; 200 μM, insitu, 231): 1.2
isoTOP-ABPP ratio, cysteine P42166_C629 ([1]; 200 μM, insitu, 231): 1.0
isoTOP-ABPP ratio, cysteine P42166_C684 ([1]; 200 μM, insitu, 231): 1.2
isoTOP-ABPP ratio P42166_C341 ([1]; 200 μM, insitu, ramos): 1.4
isoTOP-ABPP ratio P42166_C561 ([1]; 200 μM, insitu, ramos): 1.0
isoTOP-ABPP ratio P25205_C119 ([2]; 200 μM, insitu, 231): 1.1
isoTOP-ABPP ratio P25205_C119 ([2]; 200 μM, insitu, ramos): 1.3
Structure (SMILES): O=C(CCl)NCCc1c[nH]c2ccccc12 [compound 13]

isoTOP-ABPP ratio (reactivity profile), O114933_C98 (O114933_C98): 1.3
Structure (SMILES): C=CC(=O)N(Cc1cccnc1)c1ccc(Oc2ccccc2)c(C(F)(F)F)c1 [compound 15]

Structure (SMILES): O=C(CCl)N1CCC(C(O)(c2ccccc2)c2ccccc2)CC1 [compound 20]
isoTOP-ABPP ratio (reactivity profile), P19447_C342 (ERCC3 C342 (P19447)): 2.6
isoTOP-ABPP ratio (reactivity profile), O114933_C98 (O114933_C98): 3.9

isoTOP-ABPP ratio (reactivity profile), P19447_C342 (ERCC3 C342 (P19447)): 6.1
isoTOP-ABPP ratio P42166_C341 ([1]; 200 μM, insitu, 231): 1.7
isoTOP-ABPP ratio P42166_C561 ([1]; 200 μM, insitu, 231): 1.4
isoTOP-ABPP ratio, cysteine P42166_C518 ([1]; 200 μM, insitu, 231): 1.4
isoTOP-ABPP ratio, cysteine P42166_C629 ([1]; 200 μM, insitu, 231): 1.6
isoTOP-ABPP ratio P25205_C119 ([2]; 200 μM, insitu, 231): 1.1
isoTOP-ABPP ratio (reactivity profile), O00541_C272 (O00541_C272): 5.5
Structure (SMILES): O=C(CCl)NC12CC3CC(CC(C3)C1)C2 [compound 21]
